Measured values taken from US10654834B2 (Venenum Biodesign, LLC, priority 2016, dated 2020).

Legend:
human TGR5 receptor = target: T1, human TGR5 receptor (Homo sapiens, UniProt Q8TDU6); assay: Human TGR5 cAMP production assay (hTGR5-CHO cells, DiscoveRx cAMP XS+ kit); type: cell-based; details: luminescent cAMP assay, read-out: Human TGR5 Lum. cAMP Activity (EC50)
T1 construct: host or cells: CHO-K1 (hTGR5-CHO)
T1 sequence (Q8TDU6 1-330): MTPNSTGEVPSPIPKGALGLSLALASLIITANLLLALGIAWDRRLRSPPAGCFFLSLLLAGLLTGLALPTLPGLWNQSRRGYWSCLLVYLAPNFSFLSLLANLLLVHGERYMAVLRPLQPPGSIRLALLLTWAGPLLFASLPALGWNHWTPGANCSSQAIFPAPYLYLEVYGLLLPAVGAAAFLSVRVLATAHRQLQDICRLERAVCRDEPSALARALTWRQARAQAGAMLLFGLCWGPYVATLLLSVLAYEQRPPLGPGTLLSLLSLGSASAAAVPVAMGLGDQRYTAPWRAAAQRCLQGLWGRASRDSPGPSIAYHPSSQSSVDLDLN
Procedure, shortened: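 CHO-K1 cells stably expressing hTGR5, in PBS with IBMX and cAMP antibody, treated with half-log compound dilutions for 1 h at room temperature. cAMP measured by enzyme-fragment complementation luminescence after overnight detection; EC50 values reported.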

mouse TGR5 receptor = target: T2, mouse TGR5 receptor (Mus musculus, UniProt Q80SS6); assay: Mouse TGR5 HTRF cAMP production assay (HEK293-EBNA cells, Cisbio cAMP HiRange kit); type: cell-based; details: HEK293-EBNA cells overexpressing mouse TGR5, HTRF cAMP assay
T2 construct: host or cells: HEK293-EBNA (293 c18, ATCC CRL10852)
T2 sequence (Q80SS6 1-329): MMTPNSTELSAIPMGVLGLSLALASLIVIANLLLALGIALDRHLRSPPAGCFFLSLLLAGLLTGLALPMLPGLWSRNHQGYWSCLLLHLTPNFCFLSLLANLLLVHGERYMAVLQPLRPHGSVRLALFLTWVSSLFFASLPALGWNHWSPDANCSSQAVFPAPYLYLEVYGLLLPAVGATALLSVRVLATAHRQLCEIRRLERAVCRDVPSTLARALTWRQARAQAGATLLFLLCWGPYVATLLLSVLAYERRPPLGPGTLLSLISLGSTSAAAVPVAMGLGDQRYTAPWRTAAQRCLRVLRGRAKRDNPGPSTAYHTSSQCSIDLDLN
Procedure, shortened: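 HEK293-EBNA cells stably expressing mouse TGR5 (episomal vector) were suspended in serum-free DMEM with 500 μM IBMX and exposed to 12-point half-log compound dilutions for 1 h at room temperature. cAMP was detected by HTRF (d2-cAMP/anti-cAMP cryptate, 1 h, room temperature), giving EC50 from duplicates.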

[1] = Pharmacokinetic profile in mice after oral gavage; type: in vivo, mouse; details: mouse; fasted male Hilltop mice, 10 mg/kg oral gavage, plasma; read-out: Cmax
Procedure: Pharmacokinetic Profile in Mice
In this series of studies, the pharmacokinetic profile characteristics of compounds of the present invention were evaluated. The plasma concentration levels of the compounds were monitored in the blood stream (i.e., plasma) after oral gavage using Cmax, and area under the curve (AUC).
8 week old male Hilltop mice were fasted overnight. Animals were randomized into groups (n=9) by body weight. Mice were dosed with 10 mg/kg compound (in 20% PEG400/80% 0.5% carboxymethylcellulose (medium viscosity)+0.25% Tween-80) at a volume of […] through oral gavage. Blood was collected via orbital bleeding at 0, 0.25, 0.5, 1, 2, and 4 h post-dose, with no one mouse having more than 3 blood draws. Blood was collected in EDTA coated tubes. Samples were stored at −20° C. until analysis.
Quantitation of compound levels in plasma was accomplished by LC-MS/MS analysis. Standard curve and quality control samples were prepared in male CD-1 mouse plasma containing EDTA K^2+ as an anticoagulant at final concentrations ranging from 500 to 0.1 ng/mL. The plasma samples, calibration curve standards, and quality control samples were prepared in an identical method in a 96-well deep plate (1 mL) with a quenching solution (1:1 mixed acetonitrile:methanol containing the internal standard Reserpine @ 400 ng/mL). Low volume samples were supplemented with CD-1 mouse plasma. The plate was mixed on multi-tube vortexer for 1 min and centrifuged at 4000 rpm for 30 min at 4° C. (Sorvall® Super T21) before LC-MS/MS analysis. LC conditions were developed and optimized based on each compound as needed. The outlet of the column was coupled to AB Sciex 4000 QTrap Mass Spectrometer (AB Sciex, Brugg Switzerland). Detection was carried out using multiple reaction monitoring mode with positive-ion detection focusing. The pharmacokinetic parameters were derived from the plasma-time data and calculated using the standard non-compartmental method with WinNonlin (Pharsight, Mountain View, Calif.) or PK Solver (Comp. Meth. Prog. Biomed. (2010), 99, 306-314).
Values reported are the mean plasma concentration of three mice. […]

SMILES	EC50 (human TGR5 receptor)	EC50 (mouse TGR5 receptor)	Cmax [1]
N#Cc1ccc(CCNC(=O)[C@@H]2CCCN2c2cc(N3CCC(OCC#CCO)CC3)nc(C(F)(F)F)n2)cc1 [Compound 26]	< 100 nM	< 100 nM	55 ng/mL
CN(C)[C@@H]1C[C@@H](C(=O)NCCc2ccc(C(F)(F)F)cc2)N(c2cc(N3CCC(CCNC(=O)NCCC(=O)O)CC3)nc(C(F)(F)F)n2)C1 [Compound 352, 3-(3-(2-(1-(6-((2S,4R)-4-(dimethylamino)-2-((4-(trifluoromethyl)phenethyl)carbamoyl)pyrrolidin-1-yl)-2-(trifluoromethyl)pyrimidin-4-yl)piperidin-4-yl)ethyl)ureido)propanoic acid]	1000 to 30000 nM	1000 to 30000 nM	–
O=C(CCCC1CCN(c2cc(N3CCC[C@H]3C(=O)NCCc3ccc(-c4ccncc4)cc3)nc(C(F)(F)F)n2)CC1)NCS(=O)(=O)O [Compound 353, (S)-(4-(1-(6-(2-((4-(pyridin-4-yl)phenethyl)carbamoyl)pyrrolidin-1-yl)-2-(trifluoromethyl)pyrimidin-4-yl)piperidin-4-yl)butanamido)methanesulfonic acid]	< 100 nM	< 100 nM	–
O=C(CCCC1CCN(c2cc(N3CCC[C@H]3C(=O)NCCc3cccc(-c4ccncc4)c3)nc(C(F)(F)F)n2)CC1)NCS(=O)(=O)O [Compound 354, (S)-(4-(1-(6-(2-((3-(pyridin-4-yl)phenethyl)carbamoyl)pyrrolidin-1-yl)-2-(trifluoromethyl)pyrimidin-4-yl)piperidin-4-yl)butanamido)methanesulfonic acid]	1000 to 30000 nM	100 to 999 nM	–
N#Cc1ccc(CCNC(=O)[C@@H]2CCN2c2cc(N3CCC(CCNC(=O)NCCOCCNC(=O)C(F)(F)F)CC3)nc(C(F)(F)F)n2)cc1 [Compound 357, (S)-N-(4-cyanophenethyl)-1-(6-(4-(13,13,13-trifluoro-4,12-dioxo-8-oxa-3,5,11-triazatridecyl)piperidin-1-yl)-2-(trifluoromethyl)pyrimidin-4-yl)azetidine-2-carboxamide]	< 100 nM	< 100 nM	–
CC(=O)NCCOCCNC(=O)NCCC1CCN(c2cc(N3CC[C@H]3C(=O)NCCc3ccc(C#N)cc3)nc(C(F)(F)F)n2)CC1 [Compound 359, (S)-N-(4-cyanophenethyl)-1-(6-(4-(4,12-dioxo-8-oxa-3,5,11-triazatridecyl)piperidin-1-yl)-2-(trifluoromethyl)pyrimidin-4-yl)azetidine-2-carboxamide]	< 100 nM	< 100 nM	–
N#Cc1ccc(CCNC(=O)[C@@H]2CCN2c2cc(N3CCC(CCCC(=O)NCCO)CC3)nc(C(F)(F)F)n2)cc1 [Compound 361, (S)-N-(4-cyanophenethyl)-1-(6-(4-(4-((2-hydroxyethyl)amino)-4-oxobutyl)piperidin-1-yl)-2-(trifluoromethyl)pyrimidin-4-yl)azetidine-2-carboxamide]	< 100 nM	< 100 nM	–
O=C(CCCC1CCN(c2cc(N3CCC[C@H]3C(=O)NCCc3ccccc3)nc(C(F)(F)F)n2)CC1)NCS(=O)(=O)O [Compound 365, (S)-(4-(1-(6-(2-(phenethylcarbamoyl)pyrrolidin-1-yl)-2-(trifluoromethyl)pyrimidin-4-yl)piperidin-4-yl)butanamido)methanesulfonic acid]	100 to 999 nM	100 to 999 nM	–
N#Cc1ccccc1CCNC(=O)[C@@H]1CCCN1c1cc(N2CCC(CCCC(=O)NCS(=O)(=O)O)CC2)nc(C(F)(F)F)n1 [Compound 366, (S)-(4-(1-(6-(2-((2-cyanophenethyl)carbamoyl)pyrrolidin-1-yl)-2-(trifluoromethyl)pyrimidin-4-yl)piperidin-4-yl)butanamido)methanesulfonic acid]	< 100 nM	< 100 nM	–
N#Cc1ccc(CCNC(=O)[C@@H]2CCCN2c2cc(N3CCC(CCNc4c(NCCS(=O)(=O)NCC(=O)O)c(=O)c4=O)CC3)nc(C(F)(F)F)n2)cc1 [Compound 370, (S)-2-(2-((2-((2-(1-(6-(2-((4-cyanophenethyl)carbamoyl)pyrrolidin-1-yl)-2-(trifluoromethyl)pyrimidin-4-yl)piperidin-4-yl)ethyl)amino)-3,4-dioxocyclobut-1-en-1-yl)amino)ethylsulfonamido)acetic acid]	< 100 nM	< 100 nM	–
N#Cc1ccc(CCNC(=O)[C@@H]2CCCN2c2cc(N3CCC(CCNC(=O)NCCNC(=O)[C@@H](N)CS(=O)(=O)O)CC3)nc(C(F)(F)F)n2)cc1 [Compound 373, (R)-2-amino-3-((2-(3-(2-(1-(6-((S)-2-((4-cyanophenethyl)carbamoyl)pyrrolidin-1-yl)-2-(trifluoromethyl)pyrimidin-4-yl)piperidin-4-yl)ethyl)ureido)ethyl)amino)-3-oxopropane-1-sulfonic acid]	< 100 nM	< 100 nM	–
O=C(O)CCNC(=O)NCCC1CCN(c2cc(N3C[C@@H](O)C[C@H]3C(=O)NCCc3ccc(C(F)(F)F)cc3)nc(C(F)(F)F)n2)CC1 [Compound 374, 3-(3-(2-(1-(6-((2S,4S)-4-hydroxy-2-((4-(trifluoromethyl)phenethyl)carbamoyl)pyrrolidin-1-yl)-2-(trifluoromethyl)pyrimidin-4-yl)piperidin-4-yl)ethyl)ureido)propanoic acid]	< 100 nM	< 100 nM	–
N[C@@H]1C[C@@H](C(=O)NCCc2ccc(C(F)(F)F)cc2)N(c2cc(N3CCC(CCNC(=O)NCCC(=O)O)CC3)nc(C(F)(F)F)n2)C1 [Compound 375, 3-(3-(2-(1-(6-((2S,4R)-4-amino-2-((4-(trifluoromethyl)phenethyl)carbamoyl)pyrrolidin-1-yl)-2-(trifluoromethyl)pyrimidin-4-yl)piperidin-4-yl)ethyl)ureido)propanoic acid]	1000 to 30000 nM	100 to 999 nM	–
O=C(O)CCNC(=O)NCCC1CCN(c2cc(N3CCC[C@H]3C(=O)NCCc3ccc(-c4ccncc4)cc3)nc(C(F)(F)F)n2)CC1 [Compound 376, (S)-3-(3-(2-(1-(6-(2-((4-(pyridin-4-yl)phenethyl)carbamoyl)pyrrolidin-1-yl)-2-(trifluoromethyl)pyrimidin-4-yl)piperidin-4-yl)ethyl)ureido)propanoic acid]	100 to 999 nM	< 100 nM	–
O=C(O)CCNC(=O)NCCC1CCN(c2cc(N3CCC[C@H]3C(=O)NCCc3ccc(-c4cccnc4)cc3)nc(C(F)(F)F)n2)CC1 [Compound 377, (S)-3-(3-(2-(1-(6-(2-((4-(pyridin-3-yl)phenethyl)carbamoyl)pyrrolidin-1-yl)-2-(trifluoromethyl)pyrimidin-4-yl)piperidin-4-yl)ethyl)ureido)propanoic acid]	100 to 999 nM	100 to 999 nM	–
O=C(O)CCNC(=O)NCCC1CCN(c2cc(N3CCC[C@H]3C(=O)NCCc3ccc(-c4ccccn4)cc3)nc(C(F)(F)F)n2)CC1 [Compound 378, (S)-3-(3-(2-(1-(6-(2-((4-(pyridin-2-yl)phenethyl)carbamoyl)pyrrolidin-1-yl)-2-(trifluoromethyl)pyrimidin-4-yl)piperidin-4-yl)ethyl)ureido)propanoic acid]	1000 to 30000 nM	1000 to 30000 nM	–
